Data taken from patent US20240343729A1 (priority 2021, published 2024).

Legend:
[1] = tested on: inflamed colonic mucosa from ulcerative colitis patients; assay: Ex-vivo culture of colon biopsies from ulcerative colitis patients, cytokine release (Protocol 1); assay type: cell-based, human; details: UC colon biopsies, two patients; PF-02545920 0.1 μM and 1 μM, TAK-063 1 uM; 24 h; compared to DMSO vehicle
Experimental: The effect of selective PDE10A inhibition was tested on inflamed colonic mucosa from ulcerative colitis patients taken during routine endoscopy (Protocol 1 detailed below). These samples retain a disease phenotype in ex-vivo culture, secrete high basal levels of inflammatory cytokines, and represent a highly relevant and translational disease model. The effect of the PDE10A inhibitors on levels of the inflammatory cytokines IL-6 and IL-8 released from these tissue samples were measured. Both IL-6 and IL-8 are key regulators in ulcerative colitis pathology and their levels correlate with disease severity (Waldner M J et al. Master regulator of intestinal disease: IL-6 in chronic inflammation and cancer development. Semin Immunol. 26(1), 75-9 (2014); Bernardo D et al. IL-6 promotes immune responses in human ulcerative colitis and induces a skin-homing phenotype in the dendritic cells and T-cells they stimulate. Eur J Immunol. 42(5), 1337-53 (2012); Pearl D S, Cytokine mucosal expression in ulcerative colitis, the relationship between cytokine release and disease activity. J Crohns Colitis. 7(6), 481-9 (2013)).
These colon biopsies retain an inflammatory phenotype and secrete high levels of inflammatory cytokines in ex-vivo culture.
Biopsy tissue was obtained from inflamed colonic mucosa from ulcerative colitis or Crohn's disease patients during routine endoscopy. […] Biopsies were incubated in organ culture for 24 h with the addition of positive control compounds, or specific PDE10A inhibitors. Supernatants collected at the end of the experiment were snap-frozen and stored at −70° C. For the measurement of cytokines, the frozen culture supernatants were thawed and analysed for levels of the inflammatory cytokines using Luminex cytokine assay kits (R&D Systems) and an R&D Systems MAGPIX® analyser. Mean values±SDs were calculated for the levels of spontaneous cytokine production measured in biopsy culture supernatants from each treatment group.

[2] = tested on: isolated human neutrophil; assay: In vitro assay of IL-8 neutrophil activation; assay type: cell-based
[3] = tested on: inflamed colonic mucosa from Crohn's Disease patients; assay: Ex-vivo culture of colon biopsies from Crohn's disease patients, cytokine release (Protocol 1); assay type: cell-based, human; details: 0.1 uM; 2 independent CD patient biopsies; compared to DMSO vehicle
Experimental: In addition, we tested the effect of selective PDE10A inhibition using 0.1 uM PF-2545920 on inflamed colonic mucosa from Crohn's Disease patients taken during routine endoscopy (Protocol 1).
Biopsy tissue was obtained from inflamed colonic mucosa from ulcerative colitis or Crohn's disease patients during routine endoscopy. Ex-vivo biopsy cultures for the analysis of inflammatory cytokine biomarkers were run as previously described (Vossenksmper A. et al. A CD3-specific antibody reduces cytokine production and alters phosphoprotein profiles in intestinal tissues from patients with inflammatory bowel disease. Gastroenterology, 147, 172-183 (2014)). Biopsies were incubated in organ culture for 24 h with the addition of positive control compounds, or specific PDE10A inhibitors. Supernatants collected at the end of the experiment were snap-frozen and stored at −70° C. For the measurement of cytokines, the frozen culture supernatants were thawed and analysed for levels of the inflammatory cytokines using Luminex cytokine assay kits (R&D Systems) and an R&D Systems MAGPIX® analyser. Mean values±SDs were calculated for the levels of spontaneous cytokine production measured in biopsy culture supernatants from each treatment group.

[4] = tested on: inflamed colonic mucosa from pharmacotherapy treatment-refractory ulcerative colitis patients; assay: Ex-vivo culture of resected colon tissue from treatment-refractory ulcerative colitis patients, TNFα release (Protocol 2); assay type: cell-based, human; details: 1 μM; two UC patients; SEB present; about 18 hours; compared to DMSO vehicle
other PDE family members = details: literature value; read-out: IC50s for other PDE family members; cited from earlier work
Human PDE10A2 [5] = biological target: T1, Human PDE10A2 (Homo sapiens (Human), UniProt Q9Y233); assay: cell-based; details: Forskolin 10 μM; read-out: cAMP HTRF Assay in HEK 293 rhPDE10A2 cell line (pIC50) (converted)
T1 sequence (Q9Y233 267-1055): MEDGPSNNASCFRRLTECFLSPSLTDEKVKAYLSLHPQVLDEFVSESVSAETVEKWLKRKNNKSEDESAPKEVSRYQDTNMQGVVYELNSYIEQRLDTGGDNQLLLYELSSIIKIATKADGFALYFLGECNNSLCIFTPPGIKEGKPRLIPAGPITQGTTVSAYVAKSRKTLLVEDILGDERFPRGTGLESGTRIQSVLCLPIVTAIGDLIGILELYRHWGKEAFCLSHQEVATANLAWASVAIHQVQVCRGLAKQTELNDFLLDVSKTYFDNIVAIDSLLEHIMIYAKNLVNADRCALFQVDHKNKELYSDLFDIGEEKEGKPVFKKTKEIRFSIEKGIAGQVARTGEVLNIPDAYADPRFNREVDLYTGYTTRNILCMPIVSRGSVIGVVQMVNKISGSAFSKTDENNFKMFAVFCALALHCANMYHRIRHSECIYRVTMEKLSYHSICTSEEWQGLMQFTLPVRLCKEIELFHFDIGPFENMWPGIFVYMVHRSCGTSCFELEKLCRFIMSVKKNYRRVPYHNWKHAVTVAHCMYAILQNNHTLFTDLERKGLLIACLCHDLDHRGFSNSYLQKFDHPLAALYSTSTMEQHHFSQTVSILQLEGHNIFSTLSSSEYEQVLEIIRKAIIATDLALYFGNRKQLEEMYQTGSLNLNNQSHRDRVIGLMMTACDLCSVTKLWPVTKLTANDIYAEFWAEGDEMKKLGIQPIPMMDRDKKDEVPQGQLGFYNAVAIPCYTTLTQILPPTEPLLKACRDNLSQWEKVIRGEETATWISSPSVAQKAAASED
Experimental: Semi log compound dilutions starting at a final concentration of 10 μM were dispensed into a white 384 well plate, alongside DMSO and an Inhibited control using the Tecan D300e digital dispenser. HEK 293 cells overexpressing recombinant human PDE10A2 were seeded on top of the compounds at 2500 cells/well in a volume 5 μL/well. The plate was incubated at room temperature for 60 minutes. To induce endogenous cAMP, 5 μL/well of Forskolin at a final assay concentration of 10 μM was added to the plate. The plate was incubated at room temperature for a further 45 minutes. cAMP HTRF detection reagents were added, and the plate was incubated for 60 minutes at room temperature. […] Data was analysed using a 4-parameter fit.

Human PDE10A2 [6] = biological target: T1, Human PDE10A2; assay: biochemical; assay type: biochemical; details: human PDE10A2 0.25 nM, cGMP 3 μM
Experimental: Semi Log compound dilutions starting at a final concentration of 50 μM were dispensed into a black 384 well plate alongside, DMSO and an Inhibited control using the Echo Acoustic dispenser. […] Data was analysed using a 4-parameter fit.

SMILES | IC50 (Human PDE10A2 [5]) | PDE10A2 Phosphate Sensor Enzyme Assay (pIC50) (Human PDE10A2 [6]) | other results
Cn1cc(-c2ccncc2)c(-c2ccc(OCc3ccc4ccccc4n3)cc2)n1 [PF-02545920] |  |  | secreted levels of IL-6 [1]: significantly reduced; secreted levels of IL-8 [1]: significantly reduced; IL-8 induced neutrophil activation [2]: dose dependently inhibited; secreted levels of IL-6 [3]: significantly reduced; secreted levels of IL-8 [3]: significantly reduced; secreted levels of TNFα [4]: significantly reduced; IC50 (other PDE family members): > 1000 nM
Cn1cc(-c2ccccc2)nc1C#Cc1nc(N2C[C@H]3COC[C@H]3C2)c2cnn(CC3CC3)c2n1 [Example 16, (3aR,6aS)-5-(1-(Cyclopropylmethyl)-6-((1-methyl-4-phenyl-1H-imidazol-2-yl)ethynyl)-1H-pyrazolo[3,4-d]pyrimidin-4-yl)hexahydro-1H-furo[3,4-c]pyrrole] | 4.17 nM | 10.10 | 
C[C@@H]1COCCN1c1nc(C#Cc2nc(-c3cccnc3)c[nH]2)nc2c1ncn2C [Example 32, (R)-3-Methyl-4-(9-methyl-2-((4-(pyridin-3-yl)-1H-imidazol-2-yl)ethynyl)-9H-purin-6-yl)morpholine] | 2.34 nM | 9.90 | 
Cn1ncc2c(N3C[C@H]4COC[C@H]4C3)nc(C#Cc3nc(-c4ccccc4)c[nH]3)nc21 [Example 9, (3aS,6aR)-5-[1-methyl-6-[2-(4-phenyl-1H-imidazol-2-yl)ethynyl]pyrazolo[3,4-d]pyrimidin-4-yl]-1,3,3a,4,6,6a-hexahydrofuro[3,4-c]pyrrole] | 0.603 nM |  | IC50 (Human PDE10A2 [6]; read-out: PDE10A2 Phosphate Sensor Enzyme Assay (pIC50) (converted)): 0.0251 nM
Cn1cnc2c(N3CC4(COC4)C3)nc(C#Cc3nc(-c4ccccc4)cn3CCN3CCOCC3)nc21 [Example 5, 6-[9-Methyl-2-[2-[1-(2-morpholinoethyl)-4-phenyl-imidazol-2-yl]ethynyl]purin-6-yl]-2-oxa-6-azaspiro[3.3]heptane] | 0.427 nM | 9.37 | 
Cn1cc(-c2ccccc2)nc1C#Cc1nc(N2C[C@H]3COC[C@H]3C2)c2cnn(C3COC3)c2n1 [Example 19, (3aR,6aS)-5-(6-((1-Methyl-4-phenyl-1H-imidazol-2-yl)ethynyl)-1-(oxetan-3-yl)-1H-pyrazolo[3,4-d]pyrimidin-4-yl)hexahydro-1H-furo[3,4-c]pyrrole] | 11.2 nM | 9.41 | 
COc1cn(-c2ccc(-n3cccn3)cc2F)nc(-c2ccnn2-c2ccccc2)c1=O [TAK-063, 1-[2-fluoro-4-(1H-pyrazol-1-yl)phenyl]-5-methoxy-3-(1-phenyl-1H-pyrazol-5-yl)pyridazin-4(1H)-one] |  |  | secreted levels of IL-6 [1]: significantly reduced; secreted levels of IL-8 [1]: significantly reduced; IC50 (other PDE family members): > 5000 nM
Cn1cc(-c2ccccc2)nc1C#Cc1nc(N2CCS(=N)(=O)CC2)c2cnn(C)c2n1 [Example 24, 1-Imino-4-(1-methyl-6-((1-methyl-4-phenyl-1H-imidazol-2-yl)ethynyl)-1H-pyrazolo[3,4-d]pyrimidin-4-yl)-1l6-thiomorpholine 1-oxide] | 1.2 nM | 10.10 | 
C[C@H]1COCCN1c1nc(C#Cc2nc(-c3ccccc3)c[nH]2)nc2c1ncn2C [Example 30, (S)-3-Methyl-4-(9-methyl-2-((4-phenyl-1H-imidazol-2-yl)ethynyl)-9H-purin-6-yl)morpholine] | > 1000 nM | 8.97 | 
